Experimental findings from ChEMBL document CHEMBL1201862, “PubChem BioAssay data set” (2004) are described below.

Structures are written as SMILES.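 Grown in 96-well plates, cells were treated for 48 hours with each compound at five concentrations. Insufficient inhibition: endpoint recorded as highest concentration tested. GI50 = concentration required for 50% inhibition of growth.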 Activity calls are given as the source filed them. No stated cut-off is given here; in the data, active = GI50 up to about 1.1 µM and inactive = higher.

Test systems include SK-MEL-5; NCI-H23; CAKI-1; 786-0; HCT-116; K562; RPMI-8226; U-251; HCT-15; UO-31; Malme-3M; ACHN; COLO 205; NCI-H522; OVCAR-5; OVCAR-3; HOP-62; SF-268; NCI-H226.
What all share (assay): DTP human tumour cell line panel, 48 h

As a reminder, the GI50 is the concentration giving 50% growth inhibition. Take `CCOC(=O)c1cc(OC(=O)CC)c2c(OC)ccc(OC)c2c1`: the GI50 was > 100 µM (inactive) with SK-MEL-5; 74 µM (inactive) in the test with NCI-H23; 46.2 µM (inactive) in the test on CAKI-1; 31 µM (inactive) in the test on 786-0; 70.1 µM (inactive) in the test on HCT-116; 42.3 µM (inactive) in the test on K562. The GI50 is 30.5 µM (inactive) in the test with RPMI-8226; 53.6 µM (inactive) with U-251; 25.9 µM in the test on HCT-15; 74.1 µM (inactive) with UO-31; > 100 µM (inactive) with Malme-3M; 35.2 µM (inactive) with ACHN. Further, the GI50 in the test on COLO 205 was > 100 µM (inactive); in the test with NCI-H522, > 100 µM (inactive); in the test on OVCAR-5 it was 46.1 µM (inactive).

As for `COc1c(CC(=O)c2ccccc2)c2ccccc2n1C(C)=O`, the GI50 in the test on NCI-H23 was 58.7 µM (inactive); in the test with CAKI-1, > 100 µM (inactive); with 786-0, 29.9 µM (inactive); with HCT-116, > 100 µM (inactive); with K562, > 100 µM (inactive); in the test with RPMI-8226, > 100 µM (inactive). In addition, the GI50 in the test with U-251 was > 100 µM (inactive); in the test on HCT-15, greater than 100 µM; in the test on OVCAR-3, > 100 µM (inactive); in the test on UO-31 it was 56.8 µM (inactive); with ACHN, > 100 µM (inactive); in the test with COLO 205, > 100 µM (inactive). In the test with HOP-62, the GI50 is > 100 µM (inactive).

As to `N=C(N)Nc1nc2cc(N)ccc2o1`, the GI50 in the test on NCI-H23, in the test on CAKI-1, with 786-0, in the test on HCT-116, in the test on SF-268 and with K562 was > 100 µM (inactive) in each case. In addition, the GI50 is > 100 µM (inactive) in the test on U-251; greater than 100 µM in the test on HCT-15; > 100 µM (inactive) in the test on NCI-H226; > 100 µM (inactive) with UO-31; > 100 µM (inactive) in the test on Malme-3M; > 100 µM (inactive) in the test with ACHN. Also, the GI50 with NCI-H522 and in the test with HOP-62 was > 100 µM (inactive) throughout.

Turning to `C(=C\c1ccccc1)/Cn1nc(-c2ccccc2)nc1-c1cnccn1`, the GI50 was 29.5 µM (inactive) with SK-MEL-5; > 100 µM (inactive) in the test on NCI-H23; > 100 µM (inactive) in the test on 786-0; > 100 µM (inactive) in the test on HCT-116; > 100 µM (inactive) in the test with SF-268; > 100 µM (inactive) in the test with K562. Further, the GI50 with RPMI-8226 was > 100 µM (inactive); in the test on U-251 it was > 100 µM (inactive); in the test with HCT-15, greater than 100 µM; in the test with OVCAR-3 it was > 100 µM (inactive); in the test with UO-31, > 100 µM (inactive); with COLO 205, > 100 µM (inactive). For the same compound, the GI50 in the test with NCI-H522, with HOP-62 and with OVCAR-5 was > 100 µM (inactive) throughout.

For the compound `CC(=O)NC(C)(C)C1CCC(C)=C(c2ccccc2)C1` (configuration not stated), the GI50 with SK-MEL-5 was > 100 µM (inactive); in the test on NCI-H23 it was > 100 µM (inactive); with 786-0 it was > 100 µM (inactive); in the test with HCT-116 it was 87.5 µM (inactive); with SF-268, > 100 µM (inactive); with K562 it was 42 µM (inactive). Also, the GI50 is 80 µM (inactive) with U-251; 74 µM in the test with HCT-15; > 100 µM (inactive) in the test with OVCAR-3; > 100 µM (inactive) with UO-31; > 100 µM (inactive) in the test on COLO 205; 88.7 µM (inactive) with NCI-H522. Moreover, the GI50 with HOP-62 and in the test on OVCAR-5 was > 100 µM (inactive) throughout.

Take `COc1ccc(/C(=N/Nc2ccccc2)C(c2ccc(OC)cc2)C2OC(=O)c3ccccc32)cc1` (configuration not stated): the GI50 in the test on SK-MEL-5 was 33.2 µM (inactive); with CAKI-1 it was 41.9 µM (inactive); with 786-0, > 100 µM (inactive); with HCT-116 it was > 100 µM (inactive); in the test on SF-268, 23.3 µM (inactive); with K562, 31.8 µM (inactive). For the same compound, the GI50 in the test with U-251 was > 100 µM (inactive); in the test with HCT-15, greater than 100 µM; in the test with NCI-H226 it was 9.84 µM (inactive); in the test on UO-31 it was 60.7 µM (inactive); in the test with Malme-3M, > 100 µM (inactive); in the test with ACHN, 97.1 µM (inactive). The GI50 is > 100 µM (inactive) in the test with COLO 205, 70.5 µM (inactive) with NCI-H522 and > 100 µM (inactive) in the test with HOP-62.

As to `CCCN1CN(C(C(=O)N[C@@H]2C(=O)N3C(C(=O)O)=C(C)CSC23)c2ccc(O)cc2)CSC1=S` (some centres not stated), the GI50 in the test on SK-MEL-5, in the test on NCI-H23, in the test on CAKI-1, in the test with 786-0, in the test on HCT-116 and with SF-268 was > 100 µM (inactive) throughout. In addition, the GI50 in the test on K562 is 80 µM (inactive); in the test on RPMI-8226, 72.1 µM (inactive); in the test on U-251, 97.5 µM (inactive); in the test with HCT-15, greater than 100 µM; in the test with OVCAR-3 it was 45.5 µM (inactive); with UO-31, > 100 µM (inactive). Further, the GI50 in the test on Malme-3M was > 100 µM (inactive); in the test with ACHN it was > 100 µM (inactive); in the test on COLO 205, 55.6 µM (inactive); in the test on NCI-H522, 23.6 µM (inactive); in the test with HOP-62 it was > 100 µM (inactive); with OVCAR-5 it was > 100 µM (inactive).

Regarding `CCC1(N=[N+]=[N-])C(=O)Nc2cc(C)ccc2C1=O` (configuration not stated), the GI50 with SK-MEL-5 was 51.8 µM (inactive); in the test on NCI-H23 it was 70.1 µM (inactive); in the test with CAKI-1 it was 36.9 µM (inactive); in the test with 786-0, > 100 µM (inactive); in the test on HCT-116 it was > 100 µM (inactive); in the test on SF-268, > 100 µM (inactive). In addition, the GI50 with K562 was 47.5 µM (inactive); in the test with U-251 it was 96.2 µM (inactive); with HCT-15 it was 72.1 µM; with OVCAR-3, 45.6 µM (inactive); with UO-31 it was 46.7 µM (inactive); in the test on Malme-3M, 68.1 µM (inactive). The GI50 was 22.3 µM (inactive) in the test on ACHN; 69.3 µM (inactive) in the test with COLO 205; 4.25 µM (inactive) with NCI-H522; > 100 µM (inactive) in the test with HOP-62; > 100 µM (inactive) with OVCAR-5.

Consider `NC1=NS(=O)(=O)Nc2nc(-c3cccs3)[nH]c21`, for which the GI50 in the test on SK-MEL-5, with NCI-H23, in the test on CAKI-1, in the test on 786-0, in the test on HCT-116 and in the test with SF-268 was > 100 µM (inactive) each time. Besides, the GI50 in the test with K562 was > 100 µM (inactive); with RPMI-8226 it was > 100 µM (inactive); with U-251, > 100 µM (inactive); with HCT-15, greater than 100 µM; with OVCAR-3, > 100 µM (inactive); in the test on UO-31, > 100 µM (inactive). In addition, the GI50 in the test with Malme-3M, with ACHN, in the test on COLO 205, with NCI-H522, in the test on HOP-62 and in the test with OVCAR-5 was > 100 µM (inactive) in each case.

As to `O=C(C#Cc1ccccc1)NC/C=C/c1ccccc1`, the GI50 is 45.1 µM (inactive) with SK-MEL-5; 44.4 µM (inactive) with NCI-H23; 37.2 µM (inactive) in the test on CAKI-1; 24.2 µM (inactive) with 786-0; 41.7 µM (inactive) in the test with HCT-116; 31.5 µM (inactive) in the test with SF-268. For the same compound, the GI50 in the test on K562 is 33.6 µM (inactive); with U-251, 39 µM (inactive); with HCT-15 it was 38.9 µM; in the test with OVCAR-3, 33 µM (inactive); in the test on NCI-H226, 31.6 µM (inactive); in the test on UO-31, 33.4 µM (inactive). The GI50 was 49.8 µM (inactive) in the test with Malme-3M; 42.6 µM (inactive) in the test with ACHN; 83.4 µM (inactive) in the test on COLO 205; 29.7 µM (inactive) with NCI-H522; 22.8 µM (inactive) in the test with HOP-62; > 100 µM (inactive) in the test with OVCAR-5.

As for `CCc1ccccc1NC(=O)C(=O)C(C#N)c1ccccc1Cl` (configuration not stated), the GI50 with SK-MEL-5, in the test with NCI-H23, in the test with 786-0, in the test on HCT-116, in the test with SF-268 and in the test on RPMI-8226 was > 100 µM (inactive) in each case. For the same compound, the GI50 in the test with U-251, in the test on OVCAR-3, with NCI-H226, with UO-31, with Malme-3M and in the test on ACHN was > 100 µM (inactive) throughout. Moreover, the GI50 in the test on COLO 205, in the test with HOP-62 and with OVCAR-5 was > 100 µM (inactive) each time.

In the case of `CNC(=O)C(C)Oc1ccc(OCC2CCCCC2)cc1` (configuration not stated), the GI50 in the test with SK-MEL-5 is 82.6 µM (inactive); with NCI-H23, 35.6 µM (inactive); with 786-0, > 100 µM (inactive); in the test on HCT-116, > 100 µM (inactive); with SF-268 it was > 100 µM (inactive); with K562, 65 µM (inactive). In addition, the GI50 with U-251 was > 100 µM (inactive); with HCT-15 it was greater than 100 µM; with OVCAR-3 it was 26.4 µM (inactive); with NCI-H226 it was > 100 µM (inactive); in the test with UO-31, 31.7 µM (inactive); in the test on Malme-3M, 25.3 µM (inactive). For the same compound, the GI50 in the test on ACHN was > 100 µM (inactive); in the test with NCI-H522, 25.2 µM (inactive).

For the compound `C/N=C(/NC)N(C)c1nc(=[N+](C)C)ss1.[O-][Cl+3]([O-])([O-])[O-]`, the GI50 is > 100 µM (inactive) in the test on SK-MEL-5; 74.1 µM (inactive) with NCI-H23; 16.3 µM (inactive) in the test on CAKI-1; > 100 µM (inactive) in the test with 786-0; 62.1 µM (inactive) in the test with HCT-116; > 100 µM (inactive) in the test on SF-268. Moreover, the GI50 is 31.2 µM (inactive) in the test with K562; > 100 µM (inactive) with U-251; 92.7 µM in the test with HCT-15; > 100 µM (inactive) in the test with OVCAR-3; 59.3 µM (inactive) in the test on NCI-H226; > 100 µM (inactive) in the test on UO-31. The GI50 is > 100 µM (inactive) in the test on ACHN, 56.4 µM (inactive) in the test on NCI-H522, > 100 µM (inactive) in the test with HOP-62 and > 100 µM (inactive) with OVCAR-5.
